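Tested at 5 concentrations; 48 h exposure; 96-well plates; endpoints linearly interpolated, else capped at highest concentration. GI50 = concentration required for 50% inhibition of growth.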 Calls of active or inactive are those of the source. Rule as the data show it: active = GI50 up to about 1.1 µM and inactive = higher.
Experiments:
Experiment in all cases: growth of human tumour cells (NCI), 48 h
T47D = system: T47D
SK-OV-3 = system: SK-OV-3
Malme-3M = system: Malme-3M
SNB-19 = system: SNB-19
MDA-N = system: MDA-N
HCT-116 = system: HCT-116
SK-MEL-2 = system: SK-MEL-2
SK-MEL-5 = system: SK-MEL-5
ACHN = system: ACHN
MOLT-4 = system: MOLT-4
SN12C = system: SN12C
EKVX = system: EKVX
KM12 = system: KM12
OVCAR-3 = system: OVCAR-3
HOP-92 = system: HOP-92
NCI-H522 = system: NCI-H522
SW-620 = system: SW-620
RXF 393 = system: RXF 393
COLO 205 = system: COLO 205
MDA-MB-231 = system: MDA-MB-231

Compound | GI50 (T47D) | GI50 (SK-OV-3) | GI50 (Malme-3M) | GI50 (SNB-19) | GI50 (MDA-N) | GI50 (HCT-116) | GI50 (SK-MEL-2) | GI50 (SK-MEL-5) | GI50 (ACHN) | GI50 (MOLT-4) | GI50 (SN12C) | GI50 (EKVX) | GI50 (KM12) | GI50 (OVCAR-3) | GI50 (HOP-92) | GI50 (NCI-H522) | GI50 (SW-620) | GI50 (RXF 393) | GI50 (COLO 205) | GI50 (MDA-MB-231)
CN1CCN(CCCN2c3ccccc3Sc3ccc(C(F)(F)F)cc32)CC1 | 10 µM (inactive) | 14.6 µM (inactive) | 2.69 µM (inactive) | 15.2 µM (inactive) | 3.6 µM (inactive) | 8.04 µM (inactive) | 7.93 µM (inactive) | 3.09 µM (inactive) | 11.9 µM (inactive) | 4.6 µM (inactive) | 12.2 µM (inactive) | 14.5 µM (inactive) | 5.14 µM (inactive) | – | – | – | – | – | – | –
COc1ccc(C2CC(c3ccc4ccccc4c3O)=NN2C(C)=O)cc1OC (centres undefined) | > 100 µM (inactive) | > 100 µM (inactive) | > 100 µM (inactive) | – | > 100 µM (inactive) | > 100 µM (inactive) | > 100 µM (inactive) | > 100 µM (inactive) | > 100 µM (inactive) | 55.1 µM (inactive) | > 100 µM (inactive) | – | > 100 µM (inactive) | > 100 µM (inactive) | > 100 µM (inactive) | > 100 µM (inactive) | > 100 µM (inactive) | > 100 µM (inactive) | > 100 µM (inactive) | > 100 µM (inactive)
COc1ccc2nc(-c3ccccc3)cc(OCC(=O)O)c2c1 | > 100 µM (inactive) | > 100 µM (inactive) | > 100 µM (inactive) | > 100 µM (inactive) | > 100 µM (inactive) | > 100 µM (inactive) | > 100 µM (inactive) | > 100 µM (inactive) | > 100 µM (inactive) | > 100 µM (inactive) | > 100 µM (inactive) | > 100 µM (inactive) | > 100 µM (inactive) | > 100 µM (inactive) | > 100 µM (inactive) | > 100 µM (inactive) | > 100 µM (inactive) | – | > 100 µM (inactive) | > 100 µM (inactive)
CCCCCCCCCCCCCCCCCCN(C)CC(COC)OP(=O)([O-])OCC[N+](C)(C)C (centres undefined) | 14 µM (inactive) | 11.2 µM (inactive) | 11.7 µM (inactive) | 0.867 µM (active) | 4.2 µM (inactive) | 1.66 µM (inactive) | 14.4 µM (inactive) | 9.44 µM (inactive) | 1.91 µM (inactive) | 2.83 µM (inactive) | 3.3 µM (inactive) | 12.5 µM (inactive) | 0.644 µM (active) | 2.24 µM (inactive) | 1.17 µM (inactive) | 1.43 µM (inactive) | 3.15 µM (inactive) | 0.824 µM (active) | 1.21 µM (inactive) | –
COc1ccc2c(c1)SC1=Nc3sc4cc(OC)ccc4[n+]3CN12 | 4.99 µM (inactive) | 70.5 µM (inactive) | 14.6 µM (inactive) | 54.3 µM (inactive) | 26.1 µM (inactive) | 41 µM (inactive) | 15.8 µM (inactive) | 4.1 µM (inactive) | 49.8 µM (inactive) | 4.62 µM (inactive) | 25.5 µM (inactive) | 26.4 µM (inactive) | 11.2 µM (inactive) | 2.72 µM (inactive) | 2.23 µM (inactive) | 1.38 µM (inactive) | 35.7 µM (inactive) | – | 2.96 µM (inactive) | 29 µM (inactive)
O=C1CCCCC1CN1CCCCC1 (centres undefined) | – | > 100 µM (inactive) | > 100 µM (inactive) | > 100 µM (inactive) | > 100 µM (inactive) | > 100 µM (inactive) | > 100 µM (inactive) | > 100 µM (inactive) | > 100 µM (inactive) | > 100 µM (inactive) | > 100 µM (inactive) | > 100 µM (inactive) | > 100 µM (inactive) | > 100 µM (inactive) | > 100 µM (inactive) | 1.91 µM (inactive) | > 100 µM (inactive) | > 100 µM (inactive) | > 100 µM (inactive) | > 100 µM (inactive)
COc1cc(C2c3cc4c(cc3C(O)C3CCC(=O)N23)OCO4)cc(OC)c1OC (centres undefined) | > 100 µM (inactive) | 80.2 µM (inactive) | > 100 µM (inactive) | 29.9 µM (inactive) | 5.56 µM (inactive) | 24.3 µM (inactive) | 27 µM (inactive) | 10.9 µM (inactive) | 40 µM (inactive) | 32.2 µM (inactive) | 58.7 µM (inactive) | > 100 µM (inactive) | 12.6 µM (inactive) | 31.6 µM (inactive) | 33 µM (inactive) | 16.9 µM (inactive) | 36.6 µM (inactive) | – | 37 µM (inactive) | > 100 µM (inactive)
Cc1ccc(S[C@@H](C)[C@@](O)(CF)CN(Cc2ccccc2)C(=O)C(F)(F)F)cc1 | 28.8 µM (inactive) | – | 20.9 µM (inactive) | 23.4 µM (inactive) | 22.8 µM (inactive) | 11.4 µM (inactive) | 18.5 µM (inactive) | – | 22.1 µM (inactive) | – | 18.4 µM (inactive) | 21.8 µM (inactive) | – | 13.7 µM (inactive) | 4.65 µM (inactive) | > 100 µM (inactive) | 23.9 µM (inactive) | – | – | 22.4 µM (inactive)
COc1cc(C2OC(N)=C(C#N)C3=C2C(C)CCC3)cc(OC)c1OC (centres undefined) | 2.03 µM (inactive) | 80.7 µM (inactive) | 39.9 µM (inactive) | 72.3 µM (inactive) | > 100 µM (inactive) | > 100 µM (inactive) | 71.8 µM (inactive) | > 100 µM (inactive) | 97.9 µM (inactive) | 34.2 µM (inactive) | > 100 µM (inactive) | 37.2 µM (inactive) | > 100 µM (inactive) | > 100 µM (inactive) | – | – | > 100 µM (inactive) | 21.9 µM (inactive) | > 100 µM (inactive) | 30.3 µM (inactive)
CCCc1c(OC)c(=O)c2c(OC)cc(OC)c3c4c(OC)cc(OC)c5c(=O)c(OC)c(CCC)c(c1c23)c54 | 4.07 µM (inactive) | 15.5 µM (inactive) | – | 19.8 µM (inactive) | 15.2 µM (inactive) | 13.8 µM (inactive) | 22 µM (inactive) | 10.7 µM (inactive) | 15.8 µM (inactive) | 7.91 µM (inactive) | 18.6 µM (inactive) | 11.8 µM (inactive) | 14.6 µM (inactive) | 14.8 µM (inactive) | 10.9 µM (inactive) | – | 17.3 µM (inactive) | 20.7 µM (inactive) | 8.47 µM (inactive) | 4.38 µM (inactive)
Cc1cccc(N/C(=C(/C(Cl)=C(Cl)Cl)[N+](=O)[O-])n2nnc3ccccc32)c1 | 22.1 µM (inactive) | 21.3 µM (inactive) | 14.9 µM (inactive) | 18.2 µM (inactive) | 23.5 µM (inactive) | 18.9 µM (inactive) | 19.1 µM (inactive) | – | 24.3 µM (inactive) | 88.3 µM (inactive) | 15.5 µM (inactive) | 18.6 µM (inactive) | 14.9 µM (inactive) | 15.3 µM (inactive) | – | – | 15.8 µM (inactive) | – | 17.1 µM (inactive) | 13.3 µM (inactive)
CO[C@@H]1C[C@H]2[C@@H]3CC[C@H]([C@H](C)COC(C)=O)[C@@]3(C)CC[C@@H]2[C@@]2(C)CC[C@H]3C[C@]312 | > 100 µM (inactive) | – | > 100 µM (inactive) | > 100 µM (inactive) | > 100 µM (inactive) | > 100 µM (inactive) | – | > 100 µM (inactive) | > 100 µM (inactive) | > 100 µM (inactive) | > 100 µM (inactive) | > 100 µM (inactive) | > 100 µM (inactive) | > 100 µM (inactive) | 73.5 µM (inactive) | > 100 µM (inactive) | > 100 µM (inactive) | > 100 µM (inactive) | 34 µM (inactive) | > 100 µM (inactive)
O=C1C[C@H]2[C@@H](O1)[C@@H](O)CN1C(=O)c3ccccc3[C@H]21 | > 100 µM (inactive) | > 100 µM (inactive) | > 100 µM (inactive) | > 100 µM (inactive) | > 100 µM (inactive) | > 100 µM (inactive) | > 100 µM (inactive) | > 100 µM (inactive) | > 100 µM (inactive) | > 100 µM (inactive) | > 100 µM (inactive) | > 100 µM (inactive) | > 100 µM (inactive) | – | – | > 100 µM (inactive) | > 100 µM (inactive) | > 100 µM (inactive) | > 100 µM (inactive) | > 100 µM (inactive)
C#CCN(Cc1ccc2[nH]c(N)nc(=O)c2c1)c1ccc(C(=O)NC(CCC(=O)O)C(=O)O)cc1 (centres undefined) | 9.35 µM (inactive) | > 100 µM (inactive) | 47.5 µM (inactive) | 40.4 µM (inactive) | > 100 µM (inactive) | > 100 µM (inactive) | – | > 100 µM (inactive) | 3.82 µM (inactive) | 5.4 µM (inactive) | 6.71 µM (inactive) | > 100 µM (inactive) | > 100 µM (inactive) | 9.71 µM (inactive) | 28.7 µM (inactive) | – | > 100 µM (inactive) | – | 12 µM (inactive) | > 100 µM (inactive)
CCOC(=O)Nc1cc(NC(/C=N/NC(C)=O)C(=O)OCC)c(OC)cc1NC(C)=O (centres undefined) | > 100 µM (inactive) | > 100 µM (inactive) | > 100 µM (inactive) | > 100 µM (inactive) | > 100 µM (inactive) | > 100 µM (inactive) | > 100 µM (inactive) | > 100 µM (inactive) | > 100 µM (inactive) | > 100 µM (inactive) | > 100 µM (inactive) | > 100 µM (inactive) | > 100 µM (inactive) | > 100 µM (inactive) | > 100 µM (inactive) | – | > 100 µM (inactive) | > 100 µM (inactive) | > 100 µM (inactive) | > 100 µM (inactive)
